Assay results as given in ChEMBL document CHEMBL1135319, “New N-alkyl-1,2-dihydro-2-thioxo-3-pyridinecarbothioamides as antituberculous agents with improved pharmacokinetics” (Bioorg Med Chem Lett, 2002).
≈ marks a conversion by molar mass, not a printed value.

Columns and labels:
[1] = test system: Mycobacterium avium; assay: In vitro antibacterial activity of compound against Mycobacterium avium MAC ANI (wild type strain) isolated from infected patients.; type: functional
[2] = Toxicity after intraperitoneal administration in rats and mice; conditions: rodentia, in vivo, ip
[3] = test system: Mycobacterium tuberculosis; assay: In vitro antibacterial activity against Mycobacterium tuberculosis MT ATCC H37Rv strain; type: functional
[4] = test system: Mycobacterium avium; assay: In vitro antibacterial activity of compound against Mycobacterium avium MAC AN3 (wild type strain) isolated from infected patients.; type: functional
[5] = Clearance rate after i.v. administration in rats; type: ADME, organism-based; conditions: rat, in vivo, iv
[6] = Elimination half life after i.v. administration of compound in rats; type: ADME, organism-based; conditions: rat, in vivo, iv
[7] = test system: Mycobacterium avium; assay: In vitro antibacterial activity of compound against Mycobacterium avium MAC AN2 wild type strain) isolated from infected patients.; type: functional
[8] = Area under the curve (Concentration) was determined for the compound as AUC with limits 0-8 after i.v. administration in rats; type: ADME, organism-based; design: route intravenous; conditions: rat, in vivo, iv
[9] = test system: Mycobacterium tuberculosis; assay: In vitro antibacterial activity against Mycobacterium tuberculosis MT-2 (wild type strain) isolated from infected patients.; type: functional
[10] = test system: Mycobacterium tuberculosis; assay: In vitro antibacterial activity against Mycobacterium tuberculosis MT-1 (wild type strain) isolated from infected patients.; type: functional
[11] = Volume of steady state distribution after i.v. administration in rats; type: ADME, organism-based; conditions: rat, in vivo, iv; read-out: Vss
[12] = test system: Mycobacterium avium; assay: In vitro antibacterial activity of compound against Mycobacterium avium MAC ATCC 15769; type: functional
[13] = test system: Mycobacterium avium; assay: In vitro antibacterial activity of compound against Mycobacterium avium MAC ISS-486 (wild type strain) isolated from infected patients.; type: functional
[14] = Mean residence time (Pharmacokinetic property) after i.v. administration in rats; type: ADME, organism-based; conditions: rat, in vivo, iv

Compound | MIC [1] | LD50 [2] | MIC [3] | MIC [4] | clearance [5] | half-life [6] | MIC [7] | AUC [8] | MIC [9] | MIC [10] | Vd [11] | MIC [12] | MIC [13] | MRT [14]
OCC/N=C(\S)c1cccnc1S | 4 µg/mL (≈ 18.7 µM) | > 2000 mg/kg | 2 µg/mL (≈ 9.33 µM) | 4 µg/mL (≈ 18.7 µM) | 93.2 mL/min/kg | 0.67 h | 8 µg/mL (≈ 37.3 µM) | 3730 ng·h/mL | 8 µg/mL (≈ 37.3 µM) | 4 µg/mL (≈ 18.7 µM) | 4.17 L/kg | 8 µg/mL (≈ 37.3 µM) | 8 µg/mL (≈ 37.3 µM) | 0.72 h
CN(C)CC/N=C(\S)c1cccnc1S.Cl | > 16 µg/mL | > 2000 mg/kg | 8 µg/mL | > 16 µg/mL | 60.8 mL/min/kg | 2.72 h | > 16 µg/mL | 6910 ng·h/mL | > 16 µg/mL | 16 µg/mL | 11.2 L/kg | > 16 µg/mL | > 16 µg/mL | 2.83 h
Cl.S/C(=N\CCN1CCCC1)c1cccnc1S | > 16 µg/mL | – | 8 µg/mL | > 16 µg/mL | – | – | > 16 µg/mL | – | > 16 µg/mL | 16 µg/mL | – | > 16 µg/mL | > 16 µg/mL | –
CN1CCN(CCC/N=C(\S)c2cccnc2S)CC1.Cl | > 16 µg/mL | – | 8 µg/mL | > 16 µg/mL | – | – | > 16 µg/mL | – | > 16 µg/mL | 16 µg/mL | – | > 16 µg/mL | > 16 µg/mL | –
Cl.S/C(=N\CCc1ccccn1)c1cccnc1S | 8 µg/mL | > 2000 mg/kg | 4 µg/mL | 8 µg/mL | 144 mL/min/kg | 2.22 h | 8 µg/mL | 4700 ng·h/mL | 1 µg/mL | 4 µg/mL | 14.5 L/kg | 4 µg/mL | 8 µg/mL | 1.77 h
Cl.S/C(=N\CCCN1CCOCC1)c1cccnc1S | > 16 µg/mL | – | 4 µg/mL | > 16 µg/mL | – | – | > 16 µg/mL | – | 8 µg/mL | 8 µg/mL | – | > 16 µg/mL | > 16 µg/mL | –
CC/N=C(\S)c1cccnc1S | 4 µg/mL (≈ 20.2 µM) | – | 0.5 µg/mL (≈ 2.52 µM) | 8 µg/mL (≈ 40.3 µM) | 20 mL/min/kg | – | 8 µg/mL (≈ 40.3 µM) | 15800 ng·h/mL | 1 µg/mL (≈ 5.04 µM) | 1 µg/mL (≈ 5.04 µM) | 0.93 L/kg | 4 µg/mL (≈ 20.2 µM) | 4 µg/mL (≈ 20.2 µM) | –
CCCCCCC/N=C(\S)c1cccnc1S | 4 µg/mL (≈ 14.9 µM) | – | 0.5 µg/mL (≈ 1.86 µM) | 4 µg/mL (≈ 14.9 µM) | 50 mL/min/kg | – | 4 µg/mL (≈ 14.9 µM) | 8250 ng·h/mL | 2 µg/mL (≈ 7.45 µM) | 2 µg/mL (≈ 7.45 µM) | 1.28 L/kg | 2 µg/mL (≈ 7.45 µM) | 4 µg/mL (≈ 14.9 µM) | –
CC[C@@H](CO)NCCN[C@@H](CC)CO [ETHAMBUTOL] | 1 µg/mL (≈ 4.89 µM) | – | ≤ 2 µg/mL | 2 µg/mL (≈ 9.79 µM) | – | – | 0.5 µg/mL (≈ 2.45 µM) | – | ≤ 2 µg/mL | ≤ 2 µg/mL | – | – | 2 µg/mL (≈ 9.79 µM) | –
